In one data set the test system is HCT116 cells. In words: MTT antiproliferative assay, HCT116 cells. It is filed as cell-based. Conditions: Homo sapiens, HCT-116, HCT116 CRC cell line, triplicate, read-out: IC50 ± SD HCT116. For orientation: Tetrazolium assays rely on reduction of a dye to a coloured formazan, in cell work by metabolically active cells.
Another data set relates to HepG2 cells. Briefly: MTT antiproliferative assay, HepG2 cells. Format: cell-based. Conditions: Homo sapiens, HepG2 HCC cell line, triplicate, read-out: IC50 ± SD HepG2.
Data set [1] concerns normal human fibroblast cell line (WI-38). Briefly: MTT cytotoxicity assay, normal human fibroblast cell line WI-38. Format: cell-based. The settings on record: WI-38 normal human fibroblasts, read-out: IC50 ± SD WI-38.
The target of the next data set is T1, CDK2/CyclinA2 (Homo sapiens, UniProt P24941).
T1 construct: purchased BPS Bioscience Inc. (San Diego, CA, USA)
In words: In vitro enzymatic CDK2 inhibition assay (Kinase-Glo luminescence kit). Conditions: triplicate; read-out: CDK2 Inhibition IC50 ± SD. It is filed as biochemical. As for the experimental part: . […]. In vitro evaluation of CDK2 inhibition was determined using a commercially available assay kit from BPS Bioscience Inc. (San Diego, CA, USA) as described in the Supplementary Information. […]
serum. After that, the reconstituted MTT was added in an amount equal to 10% of the culture medium volume. Cultures were returned to incubator for 2-4 hours depending on cell type and maximum cell density. Incubation times should be consistent when making comparisons. After the incubation period, cultures were removed from incubator and the resulting formazan crystals were dissolved by adding an amount of MTT Solubilization Soluti on [M-8910] equal to the original culture medium volume. Occasionally, especially in dense cultures, pipetting up and down [trituration] may be required to completely dissolve the MTT formazan crystals.
Absorbance was measured spectrophotometrically at a wavelength of 570 nm. The background absorbance of multiwell plates was measured at 690 nm and subtract from the 570 nm […]
2.2. CDK2/Cyclin A2 inhibitory activity
Promega Kinase-Glo Plus luminescence kinase assay protocol was adopted as reported. […]
reaction by adding 20 μl of diluted CDK2/CyclinA2 enzyme to the wells designated “Positive Control” and "Test Inhibitor Control". […] Measure luminescence using the microplate reader. “Blank” value is subtracted from all readings. […]
(In general: Kinase-Glo measures the ATP left after a reaction by luminescence.)

Turning to `Cc1nc2c(cnn2-c2ccccc2)c(=O)n1CC(=O)Nc1ccc(F)cc1` [Compound 4a], the IC50 (usually the point on the concentration scale where inhibition reaches its midpoint) in the data set on HCT116 cells was 1.09 ± 0.05 µM; in the data set on HepG2 cells, 0.58 ± 0.03 µM; in data set [1], 58.6 µM; on CDK2/CyclinA2 it was 0.21 ± 0.01 µM.

Regarding `CCOC(=O)Cn1c(C)nc2c(cnn2-c2ccccc2)c1=O` [Compound 2b], the IC50 in the data set on HCT116 cells came out at 10.9 ± 0.48 µM; in the data set with HepG2 cells, 58 ± 2.94 µM.

For `Cc1ccc(C(=O)Cn2c(C)nc3c(cnn3-c3ccccc3)c2=O)cc1` [Compound 3b], the IC50 with HCT116 cells came to 10.8 ± 0.48 µM; with HepG2 cells, 1.9 ± 0.1 µM.

`COC(=O)Cn1c(C)nc2c(cnn2-c2ccccc2)c1=O` [Compound 2a]: the IC50 came to 19.4 ± 0.86 µM in the data set with HCT116 cells and 32.9 ± 1.67 µM in the data set with HepG2 cells.

Consider `Cc1nc2c(cnn2-c2ccccc2)c(=O)n1CC(=O)Nc1cccc2ccccc12` [Compound 4e], for which the IC50 with HCT116 cells was 41.2 ± 1.83 µM; in the data set with HepG2 cells, 16.1 ± 0.81 µM.

`COc1cccc(NC(=O)Cn2c(C)nc3c(cnn3-c3ccccc3)c2=O)c1` [Compound 4c]: the melting point (as a rule, the temperature, or range, at which the solid turns liquid) was in the range of 220 to 225 °C. The IC50 with HCT116 cells worked out at 26.4 ± 1.17 µM. Further, the IC50 with HepG2 cells was determined as 87.3 ± 4.42 µM.

Regarding `Cc1nc2c(cnn2-c2ccccc2)c(=O)n1CC(=O)c1ccc(Cl)cc1` [Compound 3a], the results for the IC50 with HCT116 cells and in the data set with HepG2 cells were 35.9 ± 1.59 µM and 26.2 ± 1.33 µM, respectively.

Consider `Cc1nc2c(cnn2-c2ccccc2)c(=O)n1CC(=O)Nc1ccc(Cl)cc1` [Compound 4b], for which the IC50 with HCT116 cells came out at 3.38 ± 0.15 µM; in the data set with HepG2 cells, 2.57 ± 0.13 µM; in data set [1], 48.5 µM; on CDK2/CyclinA2, 0.96 ± 0.05 µM.

(Values after paper PMC10674233, “Design, Synthesis, In Vitro, and In Silico Studies of New N^5-Substituted-pyrazolo[3,4-d]pyrimidinone Derivatives as Anticancer CDK2 Inhibitors” (Pharmaceuticals, 2023).)
